Earlier results on 2 compounds are cited in patent publication US6479458B1, “Targeting the reverse mode of the Na+/Ca2+ exchanger for the treatment of optic neuropathy associated with glaucoma and ischemic optic neuropathy” (Allergan, Inc., priority 2001, dated 2002).

The test system of one data set is Na+/Ca2+ exchanger. The following applies: variety of cell types including neurons.

Consider `CS(=O)(=O)O.N=C(N)SCCc1ccc(OCc2ccc([N+](=O)[O-])cc2)cc1` [KB-R743], for which the “block of the reverse mode of the Na+/Ca2+ exchanger” value in the data set with Na+/Ca2+ exchanger is recorded as “preferentially block the reverse mode”.

Turning to cyclosporin A, the “inhibition of sodium-calcium exchange” value with sodium-calcium exchange is on record as “specific activity in the inhibition of sodium-calcium exchange”.
